Measured values as given in patent US11427575B2, “Antitumor compound for activating JWA gene and degrading HER2, preparation method thereof, and application thereof” (SIMCERE PHARMACEUTICAL CO., LTD., priority 2019, dated 2022).

System: promoter of JWA gene
Experiment: Luciferase reporter gene under control of JWA gene promoter in HBE cells (high-throughput screening)
Type: cell-based, human
Details: 48 h
Text: High-throughput screening (HTS) was used to identify the human bronchial epithelial (HBE) cells stably transfected with a DNA construct with a luciferase gene under control of a 2,000 bp long promoter of JWA gene.
FIG. 1 is a sequence containing the 2000 bp promoter sequence of JWA gene that was used for a luciferase reporter gene plasmid construction.

Compound	fluorescence intensity of reporter gene (0.05 μg/mL)	fluorescence intensity of reporter gene (0.10 μg/mL)	fluorescence intensity of reporter gene (0.21 μg/mL)	fluorescence intensity of reporter gene (0.41 μg/mL)	fluorescence intensity of reporter gene (0.83 μg/mL)	fluorescence intensity of reporter gene (1.65 μg/mL)	fluorescence intensity of reporter gene (3.30 μg/mL)
COc1cccc2sc(Nc3nc4c(C(F)(F)F)cccc4s3)nc12 [JAC1013, 4-methoxy-N-(4-(trifluoromethyl)benzo (d)thiazole-2-group) benzo (d) thiazole-2-amine]	13315.33	12346.00	14926.00	16036.67	20014.00	26261.67	35332.33
COc1ccc(OC)c2sc(Nc3nc4c(F)cccc4s3)nc12 [JAC1014, N-(4-fluorobenzoyl (d)thiazole-2-group)-4,7-dimethoxy benzozoyl (d) thiazole-2-amine]	13835.33	14254.00	15262.67	18680.00	22088.00	28702.00	37664.67
COc1cccc2sc(Nc3nc4c(F)ccc(F)c4s3)nc12 [JAC1011, 4,7-difluoro-n-(4-methoxybenzo-thiazole-2-group) benzoylthiazole-2-amine]	13255.33	13553.33	15397.33	19835.00	25886.67	31413.33	39676.33
COc1cc(OC)c2nc(Nc3nc4c(C(F)(F)F)cccc4s3)sc2c1 [JAC1017, 4,6-dimethoxyn-(4-(trifluoromethyl)benzo (d)thiazole-2-group) benzo (d) thiazole-2-amine]	12910.00	13086.67	14460.00	17188.00	22680.00	28406.00	37426.00
COc1ccc(OC)c2sc(Nc3nc4c(C(F)(F)F)cccc4s3)nc12 [JAC1016, 4,7-dimethoxyn-(4-(trifluoromethyl)benzene (d)thiazole-2-group) benzene (d) thiazole-2-amine]	14360.00	16238.00	19226.00	24518.00	28746.00	32253.33	36361.67
COc1cccc2sc(Nc3nc4c(F)cc(F)cc4s3)nc12 [JAC1012, 4,6-difluoro-n-(4-methoxylbenzene (d)thiazole-2-group) benzene (d) thiazole-2-amine]	13448.67	13518.67	16205.00	19768.67	25237.33	33228.00	41139.33
COc1cc(OC)c2nc(Nc3nc4c(F)cccc4s3)sc2c1 [JAC1015, N-(4-fluorobenzoyl (d)thiazole-2-group)-4,6-dimethoxy benzozoyl (d) thiazole-2-amine]	14335.33	15573.33	18260.67	22168.67	28162.67	30168.67	37663.33
